Measurements taken from patent publication US12649750B2, “Macrocyclic compounds, compositions, and methods of using thereof” (Sionna Therapeutics Inc., priority 2022, dated 2026).

Key:
NBD1 = biological target: T1, NBD1 (Homo sapiens, UniProt P13569); test: Aggregation analysis using differential static light scattering (DSLS), thermal stability of NBD1 (ΔTagg); type: binding; details: ΔTagg versus DMSO control, NBD1 0.2 mg/ml
T1 construct: Purified recombinant NBD1 was produced using previously described methods; made in house
T1 sequence (P13569 423-646 limits assumed): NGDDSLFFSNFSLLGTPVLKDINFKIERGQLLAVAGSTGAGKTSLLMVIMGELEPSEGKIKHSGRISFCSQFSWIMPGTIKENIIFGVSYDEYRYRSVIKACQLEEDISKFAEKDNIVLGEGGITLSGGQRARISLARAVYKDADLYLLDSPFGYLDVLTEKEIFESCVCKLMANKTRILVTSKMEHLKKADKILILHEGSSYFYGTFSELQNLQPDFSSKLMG
How it was run: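 NBD1 0.2 mg/ml, S200 buffer (50 mM Tris-HCl, 150 mM NaCl, 5 mM MgCl2, 2 mM ATP, 2 mM DTT, pH7.6) + 1% glycerol; cpd in DMSO; oil overlay. Ramp 25→70° C. at 1° C./min, DSLS images every 0.5° C. ΔTagg = Tagg (inflection) − mean DMSO Tagg.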

CFTR = biological target: T2, CFTR (Homo sapiens, UniProt P13569, DEL508-508); test: TECC24 AUC fold over DMSO @10 μM, CFTR-mediated transepithelial chloride transport in CF-HBE cells; type: cell-based; details: test agent AUC divided by DMSO vehicle AUC, primary CF-HBE cells, ΔF508 homozygous donor, 48 hours incubation
T2 construct: Primary human bronchial epithelial cells from a ΔF508 homozygous CF donor; host or cells: primary human bronchial epithelial cells (CF-HBE), ΔF508 homozygous donor
T2 sequence (P13569 with tags, fused parts or gaps DEL508-508): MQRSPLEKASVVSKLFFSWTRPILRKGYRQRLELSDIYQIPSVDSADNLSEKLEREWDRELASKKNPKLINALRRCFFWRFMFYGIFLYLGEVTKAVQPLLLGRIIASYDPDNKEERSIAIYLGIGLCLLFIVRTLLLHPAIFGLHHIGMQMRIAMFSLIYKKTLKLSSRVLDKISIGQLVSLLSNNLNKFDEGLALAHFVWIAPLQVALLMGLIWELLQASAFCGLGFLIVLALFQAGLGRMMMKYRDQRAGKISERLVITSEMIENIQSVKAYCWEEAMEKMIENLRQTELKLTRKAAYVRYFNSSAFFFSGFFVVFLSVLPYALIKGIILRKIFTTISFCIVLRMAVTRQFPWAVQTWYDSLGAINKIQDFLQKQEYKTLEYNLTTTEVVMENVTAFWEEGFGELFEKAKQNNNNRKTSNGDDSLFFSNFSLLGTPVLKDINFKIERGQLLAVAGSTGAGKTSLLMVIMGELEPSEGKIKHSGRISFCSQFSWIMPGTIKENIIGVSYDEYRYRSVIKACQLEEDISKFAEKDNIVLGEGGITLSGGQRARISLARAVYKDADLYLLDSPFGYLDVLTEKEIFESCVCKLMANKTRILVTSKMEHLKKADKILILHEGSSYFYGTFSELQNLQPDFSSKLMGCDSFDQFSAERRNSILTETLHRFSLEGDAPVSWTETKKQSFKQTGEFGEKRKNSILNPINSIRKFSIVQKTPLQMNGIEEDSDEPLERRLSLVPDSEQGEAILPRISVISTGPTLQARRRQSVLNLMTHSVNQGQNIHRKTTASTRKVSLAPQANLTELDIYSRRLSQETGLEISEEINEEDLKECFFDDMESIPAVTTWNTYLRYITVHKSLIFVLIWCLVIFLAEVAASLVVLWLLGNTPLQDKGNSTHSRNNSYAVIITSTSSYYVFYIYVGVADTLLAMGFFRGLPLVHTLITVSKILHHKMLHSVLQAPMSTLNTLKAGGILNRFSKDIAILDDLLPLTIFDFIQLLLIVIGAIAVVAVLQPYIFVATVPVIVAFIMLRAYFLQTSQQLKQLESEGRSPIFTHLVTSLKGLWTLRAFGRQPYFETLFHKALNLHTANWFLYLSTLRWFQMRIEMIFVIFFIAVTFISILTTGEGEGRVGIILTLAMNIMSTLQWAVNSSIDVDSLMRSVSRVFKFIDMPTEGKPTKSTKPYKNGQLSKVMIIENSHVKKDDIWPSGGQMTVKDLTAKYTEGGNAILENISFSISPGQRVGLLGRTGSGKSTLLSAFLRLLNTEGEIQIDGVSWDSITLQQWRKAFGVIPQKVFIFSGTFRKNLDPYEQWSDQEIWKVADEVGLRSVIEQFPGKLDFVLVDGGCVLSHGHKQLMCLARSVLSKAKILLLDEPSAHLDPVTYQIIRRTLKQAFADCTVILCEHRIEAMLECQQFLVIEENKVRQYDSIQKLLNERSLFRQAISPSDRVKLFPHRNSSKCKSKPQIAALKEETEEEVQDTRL
How it was run: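 ΔF508-homozygous primary bronchial epithelial cells incubated 48 h at 36.5° C with compound (10 μM) in IL-13-containing medium, then TECC24 current-clamp recording in pH 7.4 Hepes saline with benzamil 10 μM, forskolin 10 μM, then CFTR inhibitor-172 20 μM. Equivalent Cl− current AUC between forskolin and inhibitor, expressed as fold over DMSO.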

SMILES	DSLS 3D (100 μM ΔT) (NBD1)	TECC (AUC, 10 μM) (CFTR)
COC(=O)CCc1cccc(C2(C)CCCC(C)(C)CS(=O)(=O)CCc3c(c(F)cc4[nH]ccc34)C(=O)c3ccc(F)c(c3)-c3nc2nn3C)c1 (single isomer, unassigned) [Compound 31A, methyl 3-[3-[22,28-difluoro-3,6,10,10-tetramethyl-12,12,24-trioxo-12lambda6-thia-3,4,19,30-tetrazapentacyclo[23.3.1.12,5.015,23.016,20]triaconta-1(29),2(30),4,15,17,20,22,25,27-nonaen-6-yl]phenyl]propanoate]	B (a value above 5 °C and less than or equal to 10 °C is marked “B”)	C (a value between 20 and 80 is marked “C”)
COC(=O)CCc1cccc(C2(C)CCCC(C)(C)CS(=O)(=O)CCc3c(c(F)cc4[nH]ccc34)C(=O)c3ccc(F)c(c3)-c3nc2nn3C)c1 (single isomer, unassigned) [Compound 31B, methyl 3-[3-[22,28-difluoro-3,6,10,10-tetramethyl-12,12,24-trioxo-12lambda6-thia-3,4,19,30-tetrazapentacyclo[23.3.1.12,5.015,23.016,20]triaconta-1(29),2(30),4,15,17,20,22,25,27-nonaen-6-yl]phenyl]propanoate]	A (an ΔTagg value less than or equal to 5 °C is marked “A”)	B (a value between 12-20 is marked “B”)
Cn1nc2nc1-c1cc(ccc1F)C(=O)c1c(F)cc3[nH]ccc3c1CCS(=O)(=O)CC(C)(C)CCCC2(C)c1cccc(CCC(=O)O)c1 (single isomer, unassigned) [Compound 31C, 3-[3-[22,28-difluoro-3,6,10,10-tetramethyl-12,12,24-trioxo-12lambda6-thia-3,4,19,30-tetrazapentacyclo[23.3.1.12,5.015,23.016,20]triaconta-1(29),2(30),4,15,17,20,22,25,27-nonaen-6-yl]phenyl]propanoic Acid]	C (a value greater than 10 °C and less than or equal to 25 °C is marked “C”)	C (a value between 20 and 80 is marked “C”)
Cn1nc2nc1-c1cc(ccc1F)C(=O)c1c(F)cc3[nH]ccc3c1CCS(=O)(=O)CC(C)(C)CCCC2(C)c1cccc(CCC(=O)O)c1 (single isomer, unassigned) [Compound 31D, 3-[3-[22,28-difluoro-3,6,10,10-tetramethyl-12,12,24-trioxo-12lambda6-thia-3,4,19,30-tetrazapentacyclo[23.3.1.12,5.015,23.016,20]triaconta-1(29),2(30),4,15,17,20,22,25,27-nonaen-6-yl]phenyl]propanoic acid]	A (an ΔTagg value less than or equal to 5 °C is marked “A”)	C (a value between 20 and 80 is marked “C”)
Cn1nc2nc1-c1cc(ccc1F)Cc1c(F)cc3[nH]ccc3c1CCS(=O)(=O)CC(C)(C)CCCC2(C)c1cccc(CCC(=O)O)c1 (single isomer, unassigned) [Compound 32A, 3-[3-(22,28-Difluoro-3,6,10,10-tetramethyl-12,12-dioxo-12lambda6-thia-3,4,19,30-tetrazapentacyclo[23.3.1.12,5.015,23.016,20]triaconta-1(29),2(30),4,15,17,20,22,25,27-nonaen-6-yl)phenyl]propanoic Acid]	A (an ΔTagg value less than or equal to 5 °C is marked “A”)	A (a TECC value less than 12 is marked “A”)
Cn1nc2nc1-c1cc(ccc1F)Cc1c(F)cc3[nH]ccc3c1CCS(=O)(=O)CC(C)(C)CCCC2(C)c1cccc(CCC(=O)O)c1 (single isomer, unassigned) [Compound 32B, 3-[3-(22,28-Difluoro-3,6,10,10-tetramethyl-12,12-dioxo-12lambda6-thia-3,4,19,30-tetrazapentacyclo[23.3.1.12,5.015,23.016,20]triaconta-1(29),2(30),4,15,17,20,22,25,27-nonaen-6-yl)phenyl]propanoic Acid]	C (a value greater than 10 °C and less than or equal to 25 °C is marked “C”)	C (a value between 20 and 80 is marked “C”)
CC(Cc1cccc(C2(C)CCCC(C)(C)CS(=O)(=O)CCc3c(c(F)cc4[nH]ccc34)Sc3ccc(F)c(c3)-c3nc2nn3C)c1)C(=O)O (single isomer, unassigned) [Compound 33A, 3-[3-(22,28-difluoro-3,6,10,10-tetramethyl-12,12-dioxo-12lambda6,24-dithia-3,4,19,30-tetrazapentacyclo[23.3.1.12,5.015,23.016,20]triaconta-1(29),2(30),4,15,17,20,22,25,27-nonaen-6-yl)phenyl]-2-methyl-propanoic Acid]	C (a value greater than 10 °C and less than or equal to 25 °C is marked “C”)	C (a value between 20 and 80 is marked “C”)
CC(Cc1cccc(C2(C)CCCC(C)(C)CS(=O)(=O)CCc3c(c(F)cc4[nH]ccc34)Sc3ccc(F)c(c3)-c3nc2nn3C)c1)C(=O)O (single isomer, unassigned) [Compound 33B, 3-[3-(22,28-difluoro-3,6,10,10-tetramethyl-12,12-dioxo-12lambda6,24-dithia-3,4,19,30-tetrazapentacyclo[23.3.1.12,5.015,23.016,20]triaconta-1(29),2(30),4,15,17,20,22,25,27-nonaen-6-yl)phenyl]-2-methyl-propanoic Acid]	B (a value above 5 °C and less than or equal to 10 °C is marked “B”)	A (a TECC value less than 12 is marked “A”)
CC(Cc1cccc(C2(C)CCCC(C)(C)CS(=O)(=O)CCc3c(c(F)cc4[nH]ccc34)S(=O)(=O)c3ccc(F)c(c3)-c3nc2nn3C)c1)C(=O)O (single isomer, unassigned) [Compound 34A, 3-[3-(22,28-difluoro-3,6,10,10-tetramethyl-12,12,24,24-tetraoxo-12lambda6,24lambda6-dithia-3,4,19,30-tetrazapentacyclo[23.3.1.12,5.015,23.016,20]triaconta-1(29),2(30),4,15,17,20,22,25,27-nonaen-6-yl)phenyl]-2-methyl-propanoic Acid]	C (a value greater than 10 °C and less than or equal to 25 °C is marked “C”)	C (a value between 20 and 80 is marked “C”)
CC(Cc1cccc(C2(C)CCCC(C)(C)CS(=O)(=O)CCc3c(c(F)cc4[nH]ccc34)S(=O)(=O)c3ccc(F)c(c3)-c3nc2nn3C)c1)C(=O)O (single isomer, unassigned) [Compound 34B, 3-[3-(22,28-difluoro-3,6,10,10-tetramethyl-12,12,24,24-tetraoxo-12lambda6,24lambda6-dithia-3,4,19,30-tetrazapentacyclo[23.3.1.12,5.015,23.016,20]triaconta-1(29),2(30),4,15,17,20,22,25,27-nonaen-6-yl)phenyl]-2-methyl-propanoic Acid]	A (an ΔTagg value less than or equal to 5 °C is marked “A”)	A (a TECC value less than 12 is marked “A”)
CC1(C)CCCCC(C)(c2cccc(CCC(=O)O)c2)c2cnc([nH]2)-c2cc(ccc2F)Oc2c(F)cc3[nH]ccc3c2CCS(=O)(=O)C1 (single isomer, unassigned) [Compound 43A, 3-[3-(23,29-difluoro-6,11,11-trimethyl-13,13-dioxo-25-oxa-13lambda6-thia-3,20,31-triazapentacyclo[24.3.1.12,5.016,24.017,21]hentriaconta-1(30),2,4,16,18,21,23,26,28-nonaen-6-yl)phenyl]propanoic Acid]	A (an ΔTagg value less than or equal to 5 °C is marked “A”)	A (a TECC value less than 12 is marked “A”)
CC1(c2cccc(CCC(=O)O)c2)CCCC2(CC2)CS(=O)(=O)CCc2c(c(F)cc3[nH]ccc23)Oc2ccc(F)c(c2)-c2ncc1[nH]2 (single isomer, unassigned) [Compound 45A, 3-[3-(22,28-difluoro-6-methyl-12,12-dioxo-spiro [24-oxa-12lambda6-thia-3,19,30-triazapentacyclo[23.3.1.12, 5.015,23.016,20]triaconta-1(29),2,4,15,17,20,22,25,27-nonaene-10,1′-cyclopropane]-6-yl)phenyl]propanoic acid]	A (an ΔTagg value less than or equal to 5 °C is marked “A”)	A (a TECC value less than 12 is marked “A”)
CC1(c2cccc(CCC(=O)O)c2)CCCC2(CC2)CS(=O)(=O)CCc2c(c(F)cc3[nH]ccc23)Oc2ccc(F)c(c2)-c2ncc1[nH]2 (single isomer, unassigned) [Compound 45B, 3-[3-(22,28-difluoro-6-methyl-12,12-dioxo-spiro [24-oxa-12lambda6-thia-3,19,30-triazapentacyclo[23.3.1.12, 5.015,23.016,20]triaconta-1(29),2,4,15,17,20,22,25,27-nonaene-10,1′-cyclopropane]-6-yl)phenyl]propanoic acid]	C (a value greater than 10 °C and less than or equal to 25 °C is marked “C”)	A (a TECC value less than 12 is marked “A”)
